From ChEMBL document CHEMBL5303765, “Data for DCP probe BAY-7081” (2023)

Assays:
[1] = target: Dual 3',5'-cyclic-AMP and -GMP phosphodiesterase 11A (Homo sapiens, UniProt Q9HCR9); assay: Panlabs assay PDE11A4; parameters: compound concentration 10 uM; details: at 10 µM
Mu-type opioid receptor = Mu-type opioid receptor (Homo sapiens, UniProt P35372); assay: GPCRScan assay: inhibition of MOR; parameters: radioligand conc. used [nm] 1.0 – 2.0, parental cells stable HEK
[2] = target: Phosphodiesterase 6 (Bos taurus) (UniProt P23439+P16586+P11541+P22571+P04972+Q95142); assay: Panlabs assay PDE6; type: tissue-based; parameters: compound concentration 10 uM; details: retina, at 10 µM
[3] = target: T1, 5-hydroxytryptamine receptor 2C (Homo sapiens) (UniProt P28335); assay: Serotonin (5-Hydroxytryptamine) 5-HT2C Eurofins Panlabs panel; details: Compound concentration 10.0 uM
T1 sequence (whole entry): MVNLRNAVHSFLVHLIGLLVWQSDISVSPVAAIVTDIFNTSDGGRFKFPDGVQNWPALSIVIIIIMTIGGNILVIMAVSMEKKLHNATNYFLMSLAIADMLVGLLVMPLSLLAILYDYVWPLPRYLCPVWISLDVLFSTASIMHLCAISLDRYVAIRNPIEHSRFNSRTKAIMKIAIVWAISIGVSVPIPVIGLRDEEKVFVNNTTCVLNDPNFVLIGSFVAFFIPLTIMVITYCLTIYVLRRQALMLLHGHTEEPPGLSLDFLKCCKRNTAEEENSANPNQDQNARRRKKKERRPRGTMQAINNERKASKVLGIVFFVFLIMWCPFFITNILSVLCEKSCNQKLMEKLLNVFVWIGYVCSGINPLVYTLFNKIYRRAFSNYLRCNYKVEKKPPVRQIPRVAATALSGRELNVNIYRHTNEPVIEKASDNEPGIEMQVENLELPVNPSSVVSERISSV

Phosphodiesterase PDE1 = Phosphodiesterase PDE1 (Bos taurus, UniProt Q01061+P14100+A0A3Q1MCV4); assay: 3H-cAMP and 3H-cGMP Scintillation Proximity Assay (PDE1); type: tissue-based, brain
[4] = target: Endothelin-1 receptor (Homo sapiens) (UniProt P25101); assay: Endothelin ETA Eurofins Panlabs panel; details: Compound concentration 10.0 uM
[5] = target: Voltage-gated sodium channel, site 2 (Rattus norvegicus, UniProt F1LQQ7+O08562+O88420+O88457+P04774+P04775+P08104+P15389+P15390+Q62968); assay: Sodium Channel, Site 2 Eurofins Panlabs panel; type: protein assay; details: compound concentration 10 uM
[6] = target: T2, Alpha-2A adrenergic receptor (Homo sapiens) (UniProt P08913); assay: Adrenergic alpha2A Eurofins Panlabs panel; details: Compound concentration 10.0 uM
T2 sequence (whole entry): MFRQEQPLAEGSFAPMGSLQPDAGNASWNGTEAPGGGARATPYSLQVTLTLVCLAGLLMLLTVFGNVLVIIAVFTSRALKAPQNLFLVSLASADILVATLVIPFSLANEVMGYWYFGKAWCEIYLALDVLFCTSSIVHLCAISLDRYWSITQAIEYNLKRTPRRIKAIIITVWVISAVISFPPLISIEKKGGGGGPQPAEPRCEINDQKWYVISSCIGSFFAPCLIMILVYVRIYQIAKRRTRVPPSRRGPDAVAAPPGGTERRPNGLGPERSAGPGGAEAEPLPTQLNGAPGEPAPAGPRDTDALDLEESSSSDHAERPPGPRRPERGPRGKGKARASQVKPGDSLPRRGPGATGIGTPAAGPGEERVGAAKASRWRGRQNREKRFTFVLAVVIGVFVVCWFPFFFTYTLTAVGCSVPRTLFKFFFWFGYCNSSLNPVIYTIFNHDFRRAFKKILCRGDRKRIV

[7] = target: T3, Muscarinic acetylcholine receptor M4 (Homo sapiens) (UniProt P08173); assay: Muscarinic M4 Eurofins Panlabs panel; details: Compound concentration 10.0 uM
T3 sequence (whole entry): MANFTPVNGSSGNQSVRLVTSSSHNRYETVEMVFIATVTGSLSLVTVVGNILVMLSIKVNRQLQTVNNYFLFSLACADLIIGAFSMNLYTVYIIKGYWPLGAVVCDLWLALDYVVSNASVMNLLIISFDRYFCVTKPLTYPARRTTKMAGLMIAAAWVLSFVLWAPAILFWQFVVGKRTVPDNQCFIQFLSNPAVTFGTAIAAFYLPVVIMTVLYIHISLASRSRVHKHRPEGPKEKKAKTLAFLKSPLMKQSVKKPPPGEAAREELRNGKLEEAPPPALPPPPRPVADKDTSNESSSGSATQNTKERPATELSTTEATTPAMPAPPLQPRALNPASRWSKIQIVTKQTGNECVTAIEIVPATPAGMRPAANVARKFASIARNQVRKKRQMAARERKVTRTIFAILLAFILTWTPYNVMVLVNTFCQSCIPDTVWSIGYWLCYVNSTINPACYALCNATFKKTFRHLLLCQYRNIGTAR

[8] = target: 5-hydroxytryptamine receptor 2A (Homo sapiens) (UniProt P28223); assay: Serotonin (5-Hydroxytryptamine) 5-HT2A Eurofins Panlabs panel; details: Compound concentration 10.0 uM
[9] = target: Beta-3 adrenergic receptor (Homo sapiens) (UniProt P13945); assay: Adrenergic beta3 Eurofins Panlabs panel; details: concentration not given here
[10] = target: cAMP and cAMP-inhibited cGMP 3',5'-cyclic phosphodiesterase 10A (Homo sapiens, UniProt Q9Y233); assay: 3H-cAMP and 3H-cGMP Scintillation Proximity Assay (PDE10A)
[11] = target: 5-hydroxytryptamine receptor 2B (Homo sapiens) (UniProt P41595); assay: Serotonin (5-Hydroxytryptamine) 5-HT2B Eurofins Panlabs panel; details: Compound concentration 10.0 uM
[12] = target: Phosphodiesterase 3 (Homo sapiens) (UniProt Q14432+Q13370); assay: Phosphodiesterase PDE3 Eurofins Panlabs panel; type: protein assay; details: Compound concentration 10.0 uM
[13] = target: Motilin receptor (Homo sapiens) (UniProt O43193); assay: Motilin Eurofins Panlabs panel; details: concentration not given here
[14] = target: Thromboxane-A synthase (Homo sapiens) (UniProt P24557); assay: Thromboxane Synthase Eurofins Panlabs panel; details: concentration not given here
[15] = target: T4, Muscarinic acetylcholine receptor M2 (Homo sapiens) (UniProt P08172); assay: Muscarinic M2 Eurofins Panlabs panel; details: Compound concentration 10.0 uM
T4 sequence (whole entry): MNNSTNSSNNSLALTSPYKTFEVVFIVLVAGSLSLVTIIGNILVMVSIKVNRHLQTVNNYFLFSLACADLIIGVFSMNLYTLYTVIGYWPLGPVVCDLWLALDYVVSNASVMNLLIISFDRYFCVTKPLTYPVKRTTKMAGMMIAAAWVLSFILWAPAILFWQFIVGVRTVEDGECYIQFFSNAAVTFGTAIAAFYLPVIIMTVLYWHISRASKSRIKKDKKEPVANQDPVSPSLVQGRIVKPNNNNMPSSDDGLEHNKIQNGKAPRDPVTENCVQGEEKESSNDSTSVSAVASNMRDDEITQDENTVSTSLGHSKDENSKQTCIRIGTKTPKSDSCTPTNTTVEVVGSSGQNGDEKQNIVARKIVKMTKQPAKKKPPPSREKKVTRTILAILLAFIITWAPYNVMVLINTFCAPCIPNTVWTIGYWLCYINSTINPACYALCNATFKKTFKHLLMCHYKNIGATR

[16] = target: Nitric oxide synthase, inducible (Mus musculus) (UniProt P29477); assay: Nitric Oxide Synthetase, Inducible (iNOS) Eurofins Panlabs panel; details: Compound concentration 10.0 uM
[17] = target: Prostaglandin F2-alpha receptor (Homo sapiens) (UniProt P43088); assay: Prostanoid FP Eurofins Panlabs panel; details: Compound concentration 10.0 uM
Prostaglandin F2-alpha receptor (Homo sapiens), sequence (P43088 whole entry): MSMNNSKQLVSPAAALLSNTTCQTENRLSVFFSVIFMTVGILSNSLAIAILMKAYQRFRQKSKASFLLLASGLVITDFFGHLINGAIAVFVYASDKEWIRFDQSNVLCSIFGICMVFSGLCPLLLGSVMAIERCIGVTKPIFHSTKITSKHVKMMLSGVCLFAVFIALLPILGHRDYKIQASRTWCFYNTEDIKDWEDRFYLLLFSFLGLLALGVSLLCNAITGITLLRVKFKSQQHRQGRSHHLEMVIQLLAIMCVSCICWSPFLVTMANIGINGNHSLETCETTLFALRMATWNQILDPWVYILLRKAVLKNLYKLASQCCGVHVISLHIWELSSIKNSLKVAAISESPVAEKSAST

Mu-type opioid receptor, sequence (P35372 whole entry): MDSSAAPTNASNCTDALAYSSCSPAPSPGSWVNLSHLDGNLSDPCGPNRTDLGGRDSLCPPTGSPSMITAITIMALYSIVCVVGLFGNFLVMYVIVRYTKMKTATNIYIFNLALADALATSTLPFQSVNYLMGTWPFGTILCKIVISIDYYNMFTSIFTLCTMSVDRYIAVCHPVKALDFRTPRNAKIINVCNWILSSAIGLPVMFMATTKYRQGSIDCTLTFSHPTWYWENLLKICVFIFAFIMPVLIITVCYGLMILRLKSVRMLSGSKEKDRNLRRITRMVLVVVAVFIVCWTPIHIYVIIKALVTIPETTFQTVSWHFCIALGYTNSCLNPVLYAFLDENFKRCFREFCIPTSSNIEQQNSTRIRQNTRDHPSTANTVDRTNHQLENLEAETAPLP
5-hydroxytryptamine receptor 2B (Homo sapiens), sequence (P41595 whole entry): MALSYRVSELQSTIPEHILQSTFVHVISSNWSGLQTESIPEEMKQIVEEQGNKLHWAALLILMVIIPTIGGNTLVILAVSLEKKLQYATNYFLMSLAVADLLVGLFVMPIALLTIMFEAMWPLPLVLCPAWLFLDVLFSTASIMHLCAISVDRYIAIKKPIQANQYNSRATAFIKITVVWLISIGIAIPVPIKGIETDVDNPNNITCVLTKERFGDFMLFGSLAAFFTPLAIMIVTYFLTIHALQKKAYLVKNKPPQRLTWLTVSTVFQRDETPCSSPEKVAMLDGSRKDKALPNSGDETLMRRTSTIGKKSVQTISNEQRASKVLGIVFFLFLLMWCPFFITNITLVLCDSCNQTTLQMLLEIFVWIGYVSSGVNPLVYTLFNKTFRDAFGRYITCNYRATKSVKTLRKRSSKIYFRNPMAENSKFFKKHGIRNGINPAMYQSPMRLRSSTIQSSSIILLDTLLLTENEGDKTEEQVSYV
Endothelin-1 receptor (Homo sapiens), sequence (P25101 whole entry): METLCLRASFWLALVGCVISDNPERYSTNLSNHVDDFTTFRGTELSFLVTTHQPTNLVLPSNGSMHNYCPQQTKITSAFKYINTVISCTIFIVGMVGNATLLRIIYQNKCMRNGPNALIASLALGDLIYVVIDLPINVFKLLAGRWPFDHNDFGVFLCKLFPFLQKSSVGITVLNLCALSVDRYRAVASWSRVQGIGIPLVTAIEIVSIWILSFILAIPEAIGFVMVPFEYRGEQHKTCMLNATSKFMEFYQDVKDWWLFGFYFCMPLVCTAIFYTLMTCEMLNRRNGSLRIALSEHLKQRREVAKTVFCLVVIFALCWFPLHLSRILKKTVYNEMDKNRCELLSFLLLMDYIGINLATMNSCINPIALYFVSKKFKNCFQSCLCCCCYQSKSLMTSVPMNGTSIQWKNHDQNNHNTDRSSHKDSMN
Motilin receptor (Homo sapiens), sequence (O43193 whole entry): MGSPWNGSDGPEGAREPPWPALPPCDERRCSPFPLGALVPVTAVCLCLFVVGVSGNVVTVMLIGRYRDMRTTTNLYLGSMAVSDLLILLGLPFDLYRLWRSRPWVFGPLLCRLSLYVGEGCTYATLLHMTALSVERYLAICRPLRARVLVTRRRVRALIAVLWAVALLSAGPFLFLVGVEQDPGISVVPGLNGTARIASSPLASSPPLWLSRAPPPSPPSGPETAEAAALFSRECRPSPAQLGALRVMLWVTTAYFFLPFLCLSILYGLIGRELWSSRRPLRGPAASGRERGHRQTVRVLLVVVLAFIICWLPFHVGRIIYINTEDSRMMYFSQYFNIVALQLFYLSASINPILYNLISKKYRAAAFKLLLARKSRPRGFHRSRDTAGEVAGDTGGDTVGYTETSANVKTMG
cAMP and cAMP-inhibited cGMP 3',5'-cyclic phosphodiesterase 10A, sequence (Q9Y233 whole entry): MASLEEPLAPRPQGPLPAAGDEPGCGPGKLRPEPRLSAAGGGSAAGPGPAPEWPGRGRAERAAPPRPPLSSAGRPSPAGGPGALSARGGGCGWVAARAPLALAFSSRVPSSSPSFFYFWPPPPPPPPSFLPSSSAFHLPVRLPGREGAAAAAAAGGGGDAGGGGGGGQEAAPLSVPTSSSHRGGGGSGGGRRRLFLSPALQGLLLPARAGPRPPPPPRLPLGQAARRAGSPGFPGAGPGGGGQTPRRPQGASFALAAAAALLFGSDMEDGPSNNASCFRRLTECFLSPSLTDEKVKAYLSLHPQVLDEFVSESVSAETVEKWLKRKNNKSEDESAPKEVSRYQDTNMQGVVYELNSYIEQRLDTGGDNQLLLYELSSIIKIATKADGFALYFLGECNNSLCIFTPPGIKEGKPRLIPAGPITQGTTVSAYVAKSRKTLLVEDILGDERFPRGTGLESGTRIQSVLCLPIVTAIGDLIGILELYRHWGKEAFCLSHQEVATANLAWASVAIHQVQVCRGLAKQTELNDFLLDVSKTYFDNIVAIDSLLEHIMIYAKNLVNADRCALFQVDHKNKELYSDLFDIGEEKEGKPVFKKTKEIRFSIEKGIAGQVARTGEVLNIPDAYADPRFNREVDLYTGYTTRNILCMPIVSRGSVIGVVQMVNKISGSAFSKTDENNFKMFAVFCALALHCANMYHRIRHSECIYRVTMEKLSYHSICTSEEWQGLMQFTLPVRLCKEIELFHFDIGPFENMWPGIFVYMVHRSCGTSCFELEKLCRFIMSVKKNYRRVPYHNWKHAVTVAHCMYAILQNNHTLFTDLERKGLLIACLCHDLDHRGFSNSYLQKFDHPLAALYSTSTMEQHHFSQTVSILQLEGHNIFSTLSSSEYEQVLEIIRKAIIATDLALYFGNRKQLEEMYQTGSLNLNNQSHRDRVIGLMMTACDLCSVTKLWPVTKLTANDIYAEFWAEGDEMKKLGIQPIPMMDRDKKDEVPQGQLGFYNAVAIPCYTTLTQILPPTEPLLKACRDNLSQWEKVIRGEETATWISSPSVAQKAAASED
Dual 3',5'-cyclic-AMP and -GMP phosphodiesterase 11A, sequence (Q9HCR9 whole entry, looked up): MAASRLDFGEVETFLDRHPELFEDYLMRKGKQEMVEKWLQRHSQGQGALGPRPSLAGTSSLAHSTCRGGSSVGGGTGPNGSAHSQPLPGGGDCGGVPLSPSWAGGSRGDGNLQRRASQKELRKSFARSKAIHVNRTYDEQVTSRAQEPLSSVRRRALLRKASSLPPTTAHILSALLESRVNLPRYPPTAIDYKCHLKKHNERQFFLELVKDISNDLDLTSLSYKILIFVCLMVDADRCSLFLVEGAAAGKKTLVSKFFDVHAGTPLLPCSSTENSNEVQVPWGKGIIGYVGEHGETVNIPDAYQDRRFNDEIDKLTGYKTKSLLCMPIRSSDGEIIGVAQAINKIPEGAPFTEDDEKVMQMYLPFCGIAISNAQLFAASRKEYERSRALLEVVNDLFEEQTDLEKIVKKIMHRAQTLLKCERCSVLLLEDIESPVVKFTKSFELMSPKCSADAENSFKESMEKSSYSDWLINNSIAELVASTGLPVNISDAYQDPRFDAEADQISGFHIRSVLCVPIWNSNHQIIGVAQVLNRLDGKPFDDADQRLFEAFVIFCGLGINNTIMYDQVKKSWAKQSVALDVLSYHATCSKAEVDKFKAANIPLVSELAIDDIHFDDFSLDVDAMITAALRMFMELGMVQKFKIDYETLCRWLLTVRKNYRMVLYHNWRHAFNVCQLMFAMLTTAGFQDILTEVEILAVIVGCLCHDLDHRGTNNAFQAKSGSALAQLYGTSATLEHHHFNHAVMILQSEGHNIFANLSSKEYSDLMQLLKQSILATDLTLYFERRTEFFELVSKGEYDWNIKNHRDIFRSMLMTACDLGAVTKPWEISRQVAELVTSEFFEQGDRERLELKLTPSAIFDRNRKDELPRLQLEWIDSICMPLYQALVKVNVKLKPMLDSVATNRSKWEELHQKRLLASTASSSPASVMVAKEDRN
Beta-3 adrenergic receptor (Homo sapiens), sequence (P13945 whole entry, looked up): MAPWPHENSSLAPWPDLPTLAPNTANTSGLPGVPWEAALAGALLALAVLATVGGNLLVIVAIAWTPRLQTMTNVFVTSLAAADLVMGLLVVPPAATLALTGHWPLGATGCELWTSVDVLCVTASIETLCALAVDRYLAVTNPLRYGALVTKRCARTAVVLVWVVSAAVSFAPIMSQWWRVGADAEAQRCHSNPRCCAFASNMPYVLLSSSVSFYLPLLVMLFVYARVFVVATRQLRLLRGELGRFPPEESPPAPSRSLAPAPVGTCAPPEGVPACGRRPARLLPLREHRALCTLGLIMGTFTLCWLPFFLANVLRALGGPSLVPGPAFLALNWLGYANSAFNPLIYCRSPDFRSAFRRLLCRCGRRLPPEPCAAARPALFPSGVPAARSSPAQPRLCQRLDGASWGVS
5-hydroxytryptamine receptor 2A (Homo sapiens), sequence (P28223 whole entry): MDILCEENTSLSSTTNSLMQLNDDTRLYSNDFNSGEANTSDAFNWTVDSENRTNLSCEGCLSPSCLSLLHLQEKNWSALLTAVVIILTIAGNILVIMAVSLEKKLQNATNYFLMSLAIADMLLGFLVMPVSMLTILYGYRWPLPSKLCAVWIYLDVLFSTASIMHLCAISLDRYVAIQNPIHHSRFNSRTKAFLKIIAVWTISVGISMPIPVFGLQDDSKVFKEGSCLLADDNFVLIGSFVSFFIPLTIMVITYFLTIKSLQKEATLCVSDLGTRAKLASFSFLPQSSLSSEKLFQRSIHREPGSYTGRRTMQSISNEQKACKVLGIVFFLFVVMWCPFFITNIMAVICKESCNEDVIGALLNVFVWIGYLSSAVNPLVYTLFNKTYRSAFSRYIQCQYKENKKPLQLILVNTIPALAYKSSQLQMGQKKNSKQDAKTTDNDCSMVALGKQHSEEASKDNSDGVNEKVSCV

| Structure (SMILES) | inhibition [1] | Ki (Mu-type opioid receptor; read-out: Ki) | Ki (Mu-type opioid receptor; read-out: pKi (converted)) | inhibition [2] | inhibition [3] | IC50 (Phosphodiesterase PDE1) | inhibition [4] | inhibition at 10 µM [5] | inhibition [6] | inhibition [7] | inhibition [8] | inhibition [9] | IC50 [10] | inhibition [11] | inhibition [12] | inhibition [13] | inhibition [14] | inhibition [15] | inhibition [16] | inhibition [17] |
| --- | --- | --- | --- | --- | --- | --- | --- | --- | --- | --- | --- | --- | --- | --- | --- | --- | --- | --- | --- | --- |
| CCC[C@@H]1CNCc2c1[nH]c(=O)c(C#N)c2N1CCC2(CC1)CC2 | 1.3% | 4.71 µM | 4.68 µM | 16.7% | – | – | – | – | – | – | – | – | – | – | – | – | – | – | – | – |
| CCC[C@H]1CNCc2c1[nH]c(=O)c(C#N)c2N1CCC2(CC1)CC2 | – | – | – | – | 5% | 0.753 µM | 3% | -4% | 28% | -4% | 2% | 0% | > 10 µM (not active) | 13% | -1.5% | 0% | 0% | 6.67% | 6% | 13% |
